This data set in a line: solvent given as SMILES.
The mark [1] stands for this setting: in c1ccc2c(c1)c1ccccc1n2-c1ccc(-c2ccc(-n3c4ccccc4c4ccccc43)cc2)cc1.
[2] abbreviates: in O=P(c1ccccc1)(c1ccccc1)c1ccccc1Oc1ccccc1P(=O)(c1ccccc1)c1ccccc1.

Values joined by “and” are separate entries in the source; they are usually repeats but may differ in a detail not shown here. Equal entries are not always repeated.

In turn, `CC(C)(C)c1ccc(-c2nnc(-c3c(-n4c5ccccc5c5ccccc54)c(-n4c5ccccc5c5ccccc54)c(-c4nnc(-c5ccc(C(C)(C)C)cc5)o4)c(-n4c5ccccc5c5ccccc54)c3-n3c4ccccc4c4ccccc43)o2)cc1` displayed a fluorescence lifetime (in Cc1ccccc1) of 12.7 ns.

For `CCCCC(CC)CN1C(=O)C2=C(c3ccc(-c4ccc(C5=C6C(C)=CC(C)=[N+]6[B-](F)(F)n6c(C)cc(C)c65)cc4)s3)N(CC(CC)CCCC)C(=O)C2=C1c1cccs1` (configuration not stated), the fluorescence lifetime (in Cc1ccccc1) turned out to be 3.87 ns.

Under “in ClCCl”, `COc1ccc(C#CC2=C3CCc4ccccc4C3=[O+][B-](F)(F)O2)cc1` returned a fluorescence lifetime of 1.49 ns.

On to `CN1/C(=C/C=C/C2=[N+](CCCCCC(=O)O)c3ccc(S(=O)(=O)[O-])cc3C2(C)C)C(C)(C)c2cc(S(=O)(=O)[O-])ccc21`, for which the fluorescence lifetime (in O) is 0.3 ns.

Take `CC(C)(C)c1ccc2c(c1)c1cc(C(C)(C)C)ccc1n2-c1ccc(-c2ccc3c(c2)C(=O)c2ccc(-c4ccc(-n5c6ccc(C(C)(C)C)cc6c6cc(C(C)(C)C)ccc65)cc4)cc2C3=O)cc1`: the fluorescence lifetime turned out to be 12.6 ns (in Cc1ccccc1) and 33 ns under setting [1].

Where the note is “in CC#N”, `F[B-]1(F)n2c(-c3ccccc3)cc(-c3ccccc3)c2N=C2C(c3ccccc3)=CC(c3ccccc3)=[N+]21` yielded a fluorescence lifetime of 0.78 ns.

Take `O=P1(c2ccccc2)c2cc(N3c4ccccc4Oc4ccccc43)ccc2-c2ccc(N3c4ccccc4Oc4ccccc43)cc21`: under setting [1], the fluorescence lifetime came out at 23.7 ns.

Where the note is “in Cc1ccccc1”, `COC(=O)/C(C#N)=c1\s/c(=c2/s/c(=C(/C#N)C(=O)OC)c3cc(-c4ccc(OC)cc4)sc23)c2sc(-c3ccc(OC)cc3)cc12` returned a fluorescence lifetime of 4.36 ns.

In the case of `Cc1cccc2nc3c(=O)[nH]c(=O)[nH]c3nc12`, the fluorescence lifetime was found to be 0.5 ns (in C1COCCO1); 0.7 ns (in CC#N); 1.35 ns (in CCO); 1.6 ns (in CO); 0.74 ns (in ClCCCl); 7.3 ns (in O).

`CCCCCCCCC1(CCCCCCCC)c2ccccc2-c2ccc(N(c3ccc(-n4c5ccccc5c5ccccc54)cc3)c3ccc4c(c3)C(CCCCCCCC)(CCCCCCCC)c3ccccc3-4)cc21`: the fluorescence lifetime amounted to 1.8 ns (in C1CCOC1); 1.8 ns (in CC#N); 1.75 ns (in CC(C)=O); 1.68 ns (in CCCCCC); 1.78 ns (in CCCCOCCCC); 1.69 ns (in CCN(CC)CC). Besides, the fluorescence lifetime is 1.66 ns (in CCOC(C)=O); 1.97 ns (in CCOCC); 1.87 ns (in CN(C)C=O); 1.75 ns (in Cc1ccccc1); 1.62 ns (in ClCCl).

Turning to `CN(C)c1ccc(/C=C2\CC/C(=C\c3ccc(N(C)C)cc3)C2=O)cc1`, the fluorescence lifetime runs as follows: (in C1CCOC1) 0.6 ns; (in C1COCCO1) 0.5 ns; (in CC#N) 0.54 ns; (in CC(C)=O) 0.74 ns; (in CC(C)O) 0.68 ns; (in CCO) 0.34 ns. For the same compound, the fluorescence lifetime is, setting by setting: (in CCOC(C)=O) 0.59 ns; (in CN(C)C=O) 0.92 ns; (in CO) 0.29 ns; (in CS(C)=O) 0.85 ns; (in Cc1ccccc1) 0.48 ns; (in ClC(Cl)(Cl)Cl) 0.37 ns. In addition, the fluorescence lifetime reads like this: (in ClC(Cl)Cl) 0.57 ns; (in ClCCl) 0.77 ns; (in S=C=S) 0.51 ns.

`CC1=[N+]2C(=C(c3ccccc3C)c3ccc(C)n3[B-]2(F)F)C=C1c1cc2n(c1)[B-](F)(F)[N+]1=CC=CC1=C2c1c(C)cc(C)cc1C`: the fluorescence lifetime runs as follows: (in C1CCCCC1) 2.84 ns; (in CCOC(C)=O) 0.81 ns.

Take `O=C1OC(=O)c2ccc(N(c3ccccc3)c3c4ccccc4cc4ccccc34)c3cccc1c23`: the fluorescence lifetime reads like this: (in C1CCOC1) 0.64 ns; (in CCCCCC) 5.4 ns; (in c1ccccc1) 2.14 ns.

For `O=c1cc(C(F)(F)F)c2cc3c4c(c2o1)CCCN4CCC3`, the fluorescence lifetime is 4.3 ns (in C1CCCCC1); 5.6 ns (in CC#N); 6.55 ns (in CCC#N); 5.72 ns (in CCCCCCCl); 5.78 ns (in CCCCl); 3.4 ns and 4.56 ns (in CCO). Besides, the fluorescence lifetime was determined as 5.4 ns (in CCOC(C)=O), 3.97 ns (in OCC(F)(F)F) and 3.5 ns (in OCC(O)CO).

`Fc1nc(F)c(F)c(C#Cc2ccccc2C#Cc2c(F)c(F)nc(F)c2F)c1F` yielded a fluorescence lifetime (in CC#N) of 1.81 ns.

Turning to `CC(C)(C)c1ccc2c(c1)c1cc(C(C)(C)C)ccc1n2-c1cccc(-n2c3ccc(C(C)(C)C)cc3c3cc(C(C)(C)C)ccc32)c1C#N`, the fluorescence lifetime came out at 5 ns (in Cc1ccccc1) and 6.8 ns under setting [2].

`C[Si]1(C)c2ccc(-c3ccc(N(c4ccccc4)c4ccccc4)cc3)cc2C=Cc2cc(-c3ccc(N(c4ccccc4)c4ccccc4)cc3)ccc21` gave a fluorescence lifetime (in ClCCl) of 5.9 ns.

Turning to `Cc1ccc2c(c1)C(=O)c1ccncc1-2`, the fluorescence lifetime (in CC#N) is 5.3 ns, the fluorescence lifetime (in CCOC(C)=O) came to 7.4 ns, the fluorescence lifetime (in Cc1ccccc1) was 6.6 ns and the fluorescence lifetime (in ClCCl) turned out to be 5.9 ns.

As for `CC(=O)Nc1ccc2c(c1)c(=O)c1ccccc1n2CCCCCC(=O)O`, the fluorescence lifetime (in O) was 17.1 ns.

For the compound `COc1ccc(N(c2ccc(OC)cc2)c2ccc3ccc4c(B(c5c(C)cc(C)cc5C)c5c(C)cc(C)cc5C)ccc5ccc2c3c54)cc1`, the fluorescence lifetime came out at 3.2 ns (in C1CCOC1); 0.7 ns (in CC(C)=O); 6.2 ns (in CCCCCC); 8.2 ns (in Cc1ccccc1); 8.5 ns (in ClC(Cl)Cl); 3.9 ns (in ClCCl).

For `CC(C)(C)c1ccc(C2=C(c3ccc(N4c5ccccc5C(C)(C)c5ccccc54)cc3)S(=O)(=O)c3c2sc(-c2ccc(N4c5ccccc5C(C)(C)c5ccccc54)cc2)c3-c2ccc(C(C)(C)C)cc2)cc1`, the fluorescence lifetime (in C1CCOC1) was 1.61 ns.

In the case of `CC[B-]1(CC)c2cccc3cc4ccccc4c(c23)-c2cccc(C)[n+]21`, the fluorescence lifetime (in ClCCl) worked out at 4.1 ns.

With `CC[N+](CC)=c1ccc2c(-c3ccccc3C(=O)O)c3c(=O)oc4c5c6c(cc4c3oc-2c1)CCCN6CCC5`, the fluorescence lifetime runs as follows: (in CCO) 0.47 ns; (in ClC(Cl)Cl) 2.87 ns; (in O) 0.16 ns.

Regarding `COc1ccc2c3c(OC)c4ccccc4c(OC)c3n(C)c2c1`, the fluorescence lifetime runs as follows: (in C1CCCCC1) 14.3 ns; (in CC#N) 19.1 ns; (in CO) 18.3 ns; (in ClCCl) 12.1 ns.

`CCCCCCCCCCCCOc1cc2c3c(ccc4c5c(OCCCCCCCCCCCC)cc6c7c(ccc(c1c34)c75)C(=O)N(C1CCCCC1)C6=O)C(=O)N(C1CCCCC1)C2=O` registered a fluorescence lifetime (in ClC(Cl)Cl) of 5.4 ns.

Where the note is “in ClCCl”, `CCc1c(C)c2n(c1C)[B-](F)(F)[N+]1=C(c3ccc[nH]3)c3ccccc3C1=C2` had a fluorescence lifetime of 6.41 ns.

For `COc1ccc2cc(/C=C/C3=CC(c4ccccc4)=[O+][B-](F)(F)O3)ccc2c1`, the fluorescence lifetime (in ClCCl) worked out at 2.53 ns.

`CCOC(=O)COc1ccc(/C=C/c2cc(C)c3n2[B-](F)(F)[N+]2=C(c4[nH]c(C)cc4C)c4ccccc4C2=C3)cc1` displayed a fluorescence lifetime (in ClCCl) of 5.14 ns.

Consider `CCOC(=O)C1=CNC=C(C(=O)OCC)C1c1ccccc1`, for which the fluorescence lifetime turned out to be 7.83 ns (in C1CCOC1) and 13.8 ns (in CO).

Regarding `CC[n+]1nc2cc3c4c(c2c2cc(C)ccc21)CCCN4CCC3`, the fluorescence lifetime (in O) stood at 4.2 ns.

`CC(C)(C)NC(=O)c1cccc2ccc3c4ccccc4c4ccccc4c3c12`: the fluorescence lifetime (in ClCCl) turned out to be 1.74 ns.

As to `Cc1ccc(-c2sc(/C(C#N)=C/c3ccc(C#N)cc3)nc2-c2ccc(Cl)cc2)cc1`, the fluorescence lifetime (in CC#N) amounted to 3.02 ns.

For the compound `c1ccc(-c2cc3cc4cccc5c(-c6ccccc6)cc6cc7cccc2c7c3c6c45)cc1`, the fluorescence lifetime (in ClCCl) amounted to 4.21 ns.

For the compound `C=Cc1cc2ccc(N(CC)CC)cc2oc1=O`, the fluorescence lifetime (in CC#N) is 2.84 ns.

Regarding `CCN(CC)c1ccc2c(-c3ccccc3C(=O)[O-])c3ccc(=[N+](CC)CC)cc-3oc2c1`, the fluorescence lifetime came to 1.74 ns (in CC#N); 3.26 ns (in CC(C)O); 3.42 ns (in CCCCCCCCO); 3.41 ns (in CCCCCCO); 3.37 ns (in CCCCO); 3.27 ns (in CCCO). For the same compound, the fluorescence lifetime is 2.96 ns (in CCO); 2.33 ns (in CN(C)C=O); 2.5 ns and 2.46 ns (in CO); 1.74 ns and 1.75 ns (in O); 1.84 ns (in [2H]O[2H]).

Regarding `CCN(CC)c1ccc2cc(-c3nc4c5cccc6ccc7cccc(c7c65)c4n3-c3ccc(C(C)(C)C)cc3)c(=O)oc2c1`, under “in ClCCl”, the fluorescence lifetime came to 11.4 ns.

As to `N#Cc1nc2c3ccc(-c4ccc(-n5c6ccccc6c6ccccc65)cc4)cc3c3cc(-c4ccc(-n5c6ccccc6c6ccccc65)cc4)ccc3c2nc1C#N`, the fluorescence lifetime (in O=P(c1ccccc1)(c1ccccc1)c1cccc(-c2cc(-n3c4ccccc4c4ccccc43)cc(-n3c4ccccc4c4ccccc43)c2)n1) was 40.6 ns.

In the case of `CCN(CC)c1ccc(/N=N/c2nc3ccc(OC)cc3s2)cc1`, the fluorescence lifetime is, setting by setting: (in CC#N) 2.72 ns; (in ClCCl) 3.13 ns.

`CC(C)c1cccc(C(C)C)c1N1C(=O)c2cccc3c(Oc4ccc(C(C)(C)c5ccccc5)cc4)ccc(c23)C1=O` had a fluorescence lifetime (in ClCCl) of 1.2 ns.

Turning to `F[B-]1(F)OC(c2cc3c4c(c2)CCCN4CCC3)=Cc2cccc[n+]21`, the fluorescence lifetime (in ClC(Cl)Cl) was 3.19 ns.

Turning to `c1ccc2c(-c3cncnc3)c3ccccc3c(-c3cncnc3)c2c1`, the fluorescence lifetime is, setting by setting: (in CCO) 6.4 ns; (in ClCCl) 7.2 ns.

The compound `CC(C)(C)c1ccc2c(c1)c1cc(C(C)(C)C)ccc1n2-c1cc[n+]2c(c1)-c1ccccc1O[B-]2(F)F` displayed a fluorescence lifetime under setting [2] of 6.3 ns.

`N#Cc1ccc(C#Cc2ccc(C#Cc3ccccc3C#N)cc2C#N)cc1`: the fluorescence lifetime (in ClC(Cl)Cl) was 1.83 ns.

`N#C/C(=C\c1ccc(C#N)cc1)c1nc(-c2ccc(Cl)cc2)c(-c2ccccc2)s1`: for the setting “in CC#N”, the fluorescence lifetime came to 2.48 ns.

The record behind these values is the Deep4Chem optical property database.
